Results published in patent US8895695B2, “Template-fixed beta-hairpin peptidomimetics with CXCR4 antagonizing activity” (priority 2003, dated 2014).
Bridge positions count the residues as written; N and C are the ends. Square brackets hold non-standard residues; d marks the D form. Peptide text beside a SMILES is read from it. Phe(4-F) = N[C@@H](Cc1ccc(F)cc1)C(=O)O; 2Nal = N[C@@H](Cc1ccc2ccccc2c1)C(=O)O; Cit = NC(=O)NCCC[C@H](N)C(=O)O

How the values were obtained:
[1] = target: CXCR4 (Homo sapiens, UniProt P61073); assay: Ca2+-assay method 2 (Flexstation, SDF-1 induced calcium mobilization); assay type: cell-based; design: expressed in transfected cells; host or cells: mouse pre-B cell line 300-19; conditions: method 2 (Ex. 54-160), mouse pre-B cell line 300-19 with human CXCR4, 10 nM SDF-1; read-out: IC50 (nM) Ca^2+ assay
CXCR4, sequence (P61073 whole entry): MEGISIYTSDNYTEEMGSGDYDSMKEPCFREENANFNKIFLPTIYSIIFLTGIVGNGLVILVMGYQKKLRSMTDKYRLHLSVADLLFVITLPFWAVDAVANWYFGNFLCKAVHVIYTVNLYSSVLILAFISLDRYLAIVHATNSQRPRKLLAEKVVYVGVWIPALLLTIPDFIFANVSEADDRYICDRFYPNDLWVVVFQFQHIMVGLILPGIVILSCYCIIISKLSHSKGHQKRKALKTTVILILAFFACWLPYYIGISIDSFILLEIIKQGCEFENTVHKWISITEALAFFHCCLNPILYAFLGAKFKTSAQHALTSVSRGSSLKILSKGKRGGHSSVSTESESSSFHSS
Description: 2.2. Ca^2+-Assay: CXCR4-Antagonizing Activity of the Peptides.
The cells were batch loaded with the Calcium 3 Assay kit (Molecular Devices) in assay buffer (Hanks Balanced salt solution, HBSS, 20 mM HEPES, pH 7.4, 0.1% BSA) for 1 h at room temperature and then 200,000 labeled cells were dispensed into black 96 well assays plates (Costar No. 3603). A 20-fold concentrated solution of peptide in assay buffer was added to the cells and the whole plate was centrifuged to settle the cells to the bottom of the wells. Calcium mobilization induced by 10 nM stromal-derived factor-1 (SDF-1) was measured in the Flexstation 384 (excitation, 485 nM; emission, 525 nM) for 90 seconds. A maximal change in fluorescence response above baseline was used to calculate antagonist activity. The data for dose response curves (antagonist concentration versus % maximum response) were fitted to a four parameter logistic equation using SoftmaxPro 4.6 (Molecular Devices), from which IC50% values were calculated.

[2] = system: human red blood cells (hRBC); assay: Hemolysis; assay type: cell-based
Description: The peptides were tested for their hemolytic activity against human red blood cells (hRBC). Fresh hRBC were washed three times with phosphate buffered saline (PBS) by centrifugation for 10 min at 2000×g. Peptides at a concentration of 100 μM were incubated with 20% v/v hRBC for 1 hour at 37° C. The final erythrocyte concentration was approximately 0.9×10^9 cells per ml. A value of 0% resp. 100% cell lysis was determined by incubation of the hRBC in the presence of PBS alone and respectively 0.1% Triton X-100 in H2O. The samples were centrifuged and the supernatant was 20-fold diluted in PBS buffer and the optical density (OD) of the sample at […] was measured. The 100% lyses value (OD540H2O) gave an OD540 of approximately 1.3-1.8. Percent hemolysis was calculated as follows: (OD540peptide/OD540H2O)×100%.

[3] = in vitro; conditions: human
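Throughout, for GI50: MTT reduction read as absorbance at 595 nm, blank-corrected and expressed as percent growth relative to the time-zero cell reading, triplicate wells per concentration.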

## CC[C@H](C)[C@@H]1NC(=O)[C@H](CCCNC(=N)N)NC(=O)[C@H](Cc2ccc(O)cc2)NC(=O)[C@@H]2CCCN2C(=O)[C@H]2CCCN2C(=O)[C@H](CCCCN)NC(=O)[C@H](CCC(N)=O)NC(=O)[C@H](Cc2ccc(O)cc2)NC(=O)[C@@H]2CSSC[C@H](NC1=O)C(=O)N[C@@H](CCCNC(=N)N)C(=O)NCC(=O)N1CCC[C@@H]1C(=O)N[C@@H](CCCNC(=N)N)C(=O)N[C@@H](CCCNC(=N)N)C(=O)N[C@@H](Cc1ccc3ccccc3c1)C(=O)N2 [Ex. 71] (cyclo(YRICRG[dP]RR[2Nal]CYQK[dP]P); disulfide 4-11)
[1]
  IC50: 2.7 nM
[2]
  Hemolysis at 100 μM: 0.1%
[3]
  GI50 at 48 h: 34000 nM

## N=C(N)NCCC[C@@H]1NC(=O)[C@@H]2CSSC[C@H](NC(=O)[C@H](Cc3ccc4ccccc4c3)NC(=O)[C@H](CCCNC(=N)N)NC(=O)[C@H](CCCNC(=N)N)NC(=O)[C@H]3CCCN3C(=O)CNC1=O)C(=O)N[C@@H](Cc1ccc(O)cc1)C(=O)N[C@@H](CCC(N)=O)C(=O)N[C@@H](CCCCN)C(=O)N1CCC[C@@H]1C(=O)N1CCC[C@H]1C(=O)N[C@@H](Cc1ccc(O)cc1)C(=O)N[C@@H](CCCNC(=N)N)C(=O)N[C@@H](Cc1ccc(O)cc1)C(=O)N2 [Ex. 72] (cyclo(YRYCRG[dP]RR[2Nal]CYQK[dP]P); disulfide 4-11)
[1]
  IC50: 3.9 nM
[2]
  Hemolysis at 100 μM: 0.5%
[3]
  GI50 at 48 h: 36000 nM

## N=C(N)NCCC[C@@H]1NC(=O)[C@@H]2CSSC[C@H](NC(=O)[C@H](Cc3ccc4ccccc4c3)NC(=O)[C@H](CCCNC(=N)N)NC(=O)[C@H](CCCNC(=N)N)NC(=O)[C@H]3CCCN3C(=O)CNC1=O)C(=O)N[C@@H](Cc1ccc(O)cc1)C(=O)N[C@@H](CCC(N)=O)C(=O)N[C@@H](CCCCN)C(=O)N1CCC[C@@H]1C(=O)N1CCC[C@H]1C(=O)N[C@@H](Cc1ccc(O)cc1)C(=O)N[C@@H](CCCNC(=N)N)C(=O)N[C@@H](Cc1c[nH]c3ccccc13)C(=O)N2 [Ex. 73] (cyclo(YRWCRG[dP]RR[2Nal]CYQK[dP]P); disulfide 4-11)
[1]
  IC50: 8.8 nM
[2]
  Hemolysis at 100 μM: 0.3%
[3]
  GI50 at 48 h: 20000 nM

## N=C(N)NCCC[C@@H]1NC(=O)[C@@H]2CSSC[C@H](NC(=O)[C@H](Cc3ccc4ccccc4c3)NC(=O)[C@H](CCCNC(=N)N)NC(=O)[C@H](CCCNC(=N)N)NC(=O)[C@H]3CCCN3C(=O)CNC1=O)C(=O)N[C@@H](Cc1ccc(O)cc1)C(=O)N[C@@H](CCC(N)=O)C(=O)N[C@@H](CCCCN)C(=O)N1CCC[C@@H]1C(=O)N1CCC[C@H]1C(=O)N[C@@H](Cc1ccc(O)cc1)C(=O)N[C@@H](CCCNC(=N)N)C(=O)N1CCC[C@H]1C(=O)N2 [Ex. 74] (cyclo(YRPCRG[dP]RR[2Nal]CYQK[dP]P); disulfide 4-11)
[1]
  IC50: 19.5 nM
[2]
  Hemolysis at 100 μM: 0.4%
[3]
  GI50 at 48 h: 40000 nM

## N=C(N)NCCC[C@@H]1NC(=O)[C@@H]2CSSC[C@H](NC(=O)[C@H](Cc3ccc4ccccc4c3)NC(=O)[C@H](CCCNC(=N)N)NC(=O)[C@H](Cc3ccc(F)cc3)NC(=O)[C@H]3CCCN3C(=O)CNC1=O)C(=O)N[C@@H](Cc1ccc(O)cc1)C(=O)N[C@@H](CCC(N)=O)C(=O)N[C@@H](CCCCN)C(=O)N1CCC[C@@H]1C(=O)N1CCC[C@H]1C(=O)N[C@@H](Cc1ccc(O)cc1)C(=O)N[C@@H](CCCNC(=N)N)C(=O)N[C@@H](CCCNC(N)=O)C(=O)N2 [Ex. 76] (cyclo(YR[Cit]CRG[dP][Phe(4-F)]R[2Nal]CYQK[dP]P); disulfide 4-11)
[1]
  IC50: 5.6 nM
[2]
  Hemolysis at 100 μM: 0.1%
[3]
  GI50 at 48 h: > 100000 nM

## N=C(N)NCCC[C@@H]1NC(=O)[C@@H]2CSSC[C@H](NC(=O)[C@H](Cc3ccc4ccccc4c3)NC(=O)[C@H](CCCNC(=N)N)NC(=O)[C@H](CCCNC(=N)N)NC(=O)[C@H]3CCCN3C(=O)CNC1=O)C(=O)N[C@@H](Cc1ccc(O)cc1)C(=O)N[C@@H](CC(N)=O)C(=O)N[C@@H](CCCCN)C(=O)N1CCC[C@@H]1C(=O)N1CCC[C@H]1C(=O)N[C@@H](Cc1ccc(O)cc1)C(=O)N[C@@H](CCCNC(=N)N)C(=O)N[C@@H](CCCNC(N)=O)C(=O)N2 [Ex. 77] (cyclo(YR[Cit]CRG[dP]RR[2Nal]CYNK[dP]P); disulfide 4-11)
[1]
  IC50: 7 nM
[2]
  Hemolysis at 100 μM: 0.2%
[3]
  GI50 at 48 h: > 100000 nM
